biological target: RIPK1 recombination protein (Homo sapiens (Human), UniProt Q13546); assay: RIPK1 kinase activity assay (ADP-Glo); type: biochemical; settings: RIPK1 kinase activity, ADP-Glo, 10 μM ATP
Experimental: RIPK1 recombination protein: synthesized by Shanghai Medicilon Inc. under the commission by Hutchison MediPharma Limited (50 g of cell pellet was resuspended in 250 mL of lysis buffer (50 mM Tris, pH 7.5, 250 mM NaCl, 1 mM DTT, protease inhibitor 1:50), the cells were ultrasonically lysed using a sonicator (the power set to 4) on ice for 3×30 minutes; then centrifugation was carried out at 4° C., at 15,000 g for 30 minutes to clarify the suspension, the soluble pellet was resuspended into 10 mL of glutathione agarose, and incubated at 4° C. for 2 hours; then the beads were loaded into the column and washed with lysis buffer (no protease inhibitors) to baseline, and eluted with 20 mM of reduced glutathione (50 mM Tris, pH 8). The fractions identified by SDS-PAGE as containing the protein of interest were collected (10 mL of total volume), concentrated to about 5 mL and loaded into 300 mL superdex75 column (GE Healthcare) equilibrated with buffer (50 mM Tris, pH 7.5, 150 mM NaCl, 1 mM DTT, 10% glycerol, pH 7.5). RIP1 protein was eluted as a dimer from the superdex75 column. The protein concentration was determined by the Bradford assay using BSA as the standard. The yield was 12.5 mg at 0.63 mg/mL. The protein was aliquoted and frozen at −80° C. for later use.
ADP-Glo Kinase kit can be used to measure ADP level in kinase activity assay so as to distinguish the inhibitory effects of different compounds on RIPK1 kinase activity. The ADP-Glo assay was usually divided into three steps. Firstly, the kinase converted ATP to ADP and phosphorylated the substrate at the same time; secondly, ATP digestion reagent was added to degrade all ATP in the reaction system; finally, a detection reagent was added to reduce ADP to ATP, and energy from ATP was transferred to […] which thus emitting a chemical luminescence that can be detected. Assay procedure can refer to manufacture's technical manual.
(2) Reagent Preparation: • 1.33× kinase buffer: 5× kinase buffer stock (250 mM of NaCl, 150 mM of MgCl2, 2.5 mg/ml BSA (bovine serum albumin), 0.1% CHAPS (3-[(3-cholamidopropyl)-dimethyl-ammonio]-1-propane sulfonate), and 5 mM of dithiothreitol) was diluted with water to 1.33× kinase buffer; • RIPK1 enzyme solution: the kinase was dissolved in 1.33× kinase buffer to make 40 nM as the final working concentration; • ATP solution: 10 mM ATP stock solution in water was dissolved in 1.33× kinase buffer to make 10 μM as the final working concentration; • 4× compound preparation: the compound was diluted in a 3-fold gradient, and finally 4% DMSO aqueous solution containing different concentrations of the compound was obtained. The final concentrations of the test compound were 10, 3.33, 1.11, 0.37, 0.12, 0.04, 0.014, and 0.005 μM.
The assay set up two control groups, one was 100% inhibition group (no enzyme treatment), another was 0% inhibition group (no inhibitor treatment), each control group contained 8 replicate wells. 2.5 μl of serially diluted compound was added to each well of a 384-well plate, with double replicate wells, and 4% DMSO solution was added to control wells. Then 5 μl of RIPK1 enzyme solution was added to each well except 100% inhibition control, 5 ul of buffer was added to 100% inhibition control, after that, 2.5 μl of ATP solution was added to all wells, the plate was vibrated at 1000 rpm for 30 seconds to perform transient centrifuge; finally the 384-well assay plate was put in the shaking incubator, and incubated at room temperature for 3 hours. After the enzymatic reaction was completed, 5 μl of ATP depletion reagent was added to each well, the mixture was centrifuged transiently, then the 384-well assay plate was put in the shaking incubator, and incubated at room temperature for 1 hour. 5 μl of ADP detection reagent was added to each well, and the mixture was centrifuged transiently, and incubated at room temperature for 0.5 hour. […]

Chain of RIPK1 recombination protein (Q13546 other isoform, or with tags, fused parts or gaps): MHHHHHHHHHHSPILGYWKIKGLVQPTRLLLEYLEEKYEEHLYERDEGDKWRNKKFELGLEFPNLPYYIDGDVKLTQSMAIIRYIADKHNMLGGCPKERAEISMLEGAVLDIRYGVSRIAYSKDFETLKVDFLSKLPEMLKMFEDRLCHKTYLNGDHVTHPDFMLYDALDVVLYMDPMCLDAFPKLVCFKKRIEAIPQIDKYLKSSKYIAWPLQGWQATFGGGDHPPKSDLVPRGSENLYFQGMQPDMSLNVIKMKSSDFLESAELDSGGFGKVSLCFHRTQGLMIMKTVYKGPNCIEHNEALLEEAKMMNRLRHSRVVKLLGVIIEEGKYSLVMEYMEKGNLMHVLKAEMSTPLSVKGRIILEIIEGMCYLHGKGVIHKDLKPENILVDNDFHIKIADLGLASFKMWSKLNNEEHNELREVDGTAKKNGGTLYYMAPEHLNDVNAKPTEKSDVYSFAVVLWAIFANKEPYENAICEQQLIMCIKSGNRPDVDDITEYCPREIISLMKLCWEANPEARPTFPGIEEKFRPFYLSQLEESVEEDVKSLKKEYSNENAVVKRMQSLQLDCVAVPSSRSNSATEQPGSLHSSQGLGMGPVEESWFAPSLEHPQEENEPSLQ

Row | Structure (SMILES) | IC50
1 | CC(C)n1ncc2cnc(C(=O)NC3(c4ccc(-c5cncn(C6CCOC6)c5=O)cc4)CC3)nc21 (stereo in doubt) [Compound 80, (R)-1-i-propyl-N-(1-(4-(6-oxo-1-(tetrahydrofuran-3-yl)-1,6-dihydropyrimidin-5-yl)phenyl)cyclopropyl)-1H-pyrazolo[3,4-d]pyrimidine-6-carboxamide] | 42 nM
2 | CC(C)n1ncc2cnc(C(=O)NC3(c4ccc(-c5cncn(C6CCOC6)c5=O)cc4)CC3)nc21 (stereo in doubt) [Compound 81, (S)-1-i-propyl-N-(1-(4-(6-oxo-1-(tetrahydrofuran-3-yl)-1,6-dihydropyrimidin-5-yl)phenyl)cyclopropyl)-1H-pyrazolo[3,4-d]pyrimidine-6-carboxamide] | 39 nM
3 | CC(C#N)n1cncc(-c2ccc(C3(NC(=O)c4ncc5cnn(C(C)C)c5n4)CC3)cc2)c1=O (stereo in doubt) [Compound 82, (R)—N-(1-(4-(1-(1-cyanoethyl)-6-oxo-1,6-dihydropyrimidin-5-yl)phenyl)cyclopropyl)-1-i-propyl-1H-pyrazolo[3,4-d]pyrimidine-6-carboxamide] | 51 nM
4 | CC(C#N)n1cncc(-c2ccc(C3(NC(=O)c4ncc5cnn(C(C)C)c5n4)CC3)cc2)c1=O (stereo in doubt) [Compound 83, (S)—N-(1-(4-(1-(1-cyanoethyl)-6-oxo-1,6-dihydropyrimidin-5-yl)phenyl)cyclopropyl)-1-i-propyl-1H-pyrazolo[3,4-d]pyrimidine-6-carboxamide] | 47 nM
5 | CC(C)n1ncc2cnc(C(=O)NC3(c4ccc(-c5cncn(C)c5=O)cn4)CC3)nc21 [Compound 2] | 63 nM
6 | Cn1cncc(-c2ccc(C3(NC(=O)c4cc(Cc5ccccc5)on4)CC3)cc2)c1=O [Compound 5] | 57 nM
7 | CC(C)Cc1nc(C(=O)NC2(c3ccc(-c4cncn(C)c4=O)cc3)CC2)ncc1Cl [Compound 6] | 56 nM
8 | Cn1cncc(-c2ccc(C3(NC(=O)c4noc(Cc5ccccc5)n4)CC3)cc2)c1=O [Compound 9] | 37 nM
9 | Cn1cncc(-c2ccc(C3(NC(=O)c4nnc(Cc5ccccc5)o4)CC3)cc2)c1=O [Compound 11] | 38 nM
10 | Cn1cncc(-c2ccc(C3(NC(=O)c4nnc(Cc5c(F)cccc5F)[nH]4)CC3)cc2)c1=O [Compound 18] | 38 nM
11 | CC(C)n1cncc(-c2ccc(C3(NC(=O)c4ncc5cnn(-c6ccccc6)c5n4)CC3)cc2)c1=O [Compound 19] | 71 nM
12 | CC(C)Cc1nc(C(=O)NC2(c3ccc(-c4cncn(C(C)C)c4=O)cc3)CC2)ncc1Cl [Compound 22] | 55 nM
13 | CC(C)n1ncc2cnc(C(=O)NC3(c4ccc(-c5cncn(C)c5=O)c(F)c4)CC3)nc21 [Compound 23, N-(1-(3-fluoro-4-(1-methyl-6-oxo-1,6-dihydropyrimidin-5-yl)phenyl)cyclopropyl)-1-isopropyl-1H-pyrazolo[3,4-d]pyrimidine-6-carboxamide] | 49 nM
14 | CC(C)n1ncc2cnc(C(=O)NC3(c4ccc(-c5cncn(C)c5=O)c(Cl)c4)CC3)nc21 [Compound 25] | 53 nM
15 | CC(C)n1ncc2cnc(C(=O)NC3(c4ccc(-c5cncn(C)c5=O)cc4)CC3)cc21 [Compound 28, 1-isopropyl-N-(1-(4-(1-methyl-6-oxo-1,6-dihydropyrimidin-5-yl)phenyl)cyclopropyl)-1H-pyrazolo[4,3-c]pyridine-6-carboxamide] | 95 nM
16 | CC(C)n1cncc(-c2ccc(C3(NC(=O)c4ncc5cnn(C(C)C)c5n4)CC3)cc2Cl)c1=O [Compound 33] | 59 nM
17 | CC(C)n1cncc(-c2ccc(C3(NC(=O)c4ncc5cnn(C(C)C)c5n4)CC3)c(F)c2)c1=O [Compound 34] | 65 nM
18 | CC(C)n1cncc(-c2ccc(C3(NC(=O)c4ncc5cnn(C(C)C)c5n4)CC3)cc2F)c1=O [Compound 35] | 47 nM
19 | CC(C)n1ncc2cnc(C(=O)NC3(c4ccc(-c5cncn(CC6CC6)c5=O)cc4)CC3)nc21 [Compound 36] | 42 nM
20 | CCn1cncc(-c2ccc(C3(NC(=O)c4ncc5cnn(C(C)C)c5n4)CC3)cc2)c1=O [Compound 37] | 41 nM
21 | CC(C)n1ncc2cnc(C(=O)NC3(c4ccc(-c5cncn(CC(F)(F)F)c5=O)cc4)CC3)nc21 [Compound 38] | 48 nM
22 | CC(C)n1ncc2cnc(C(=O)NC3(c4ccc(-c5cncn([C@H](C)C(F)(F)F)c5=O)cc4)CC3)nc21 [Compound 39] | 59 nM
23 | CC(C)n1ncc2cnc(C(=O)NC3(c4ccc(-c5cncn([C@@H](C)C(F)(F)F)c5=O)cc4)CC3)nc21 [Compound 40] | 52 nM
24 | CC(C)n1ncc2cnc(C(=O)NC3(c4ccc(-c5cncn(C6COC6)c5=O)cc4)CC3)nc21 [Compound 41] | 61 nM

Stronger by IC50, values ahead:

Row | IC50 | Structure (SMILES)
25 | 35 nM | CC(C)n1ncc2cnc(C(=O)NC3(c4ccc(-c5cncn([C@H](C)C(F)(F)F)c5=O)cc4F)CC3)nc21 (stereo in doubt) [Compound 46]
26 | 35 nM | Cn1cncc(-c2ccc(C3(NC(=O)c4nnc(Cc5ccccc5)[nH]4)CC3)cc2)c1=O [Compound 3]
27 | 35 nM | CC(C)n1ncc2cnc(C(=O)NC3(c4ccc(-c5cnc(N)n(C)c5=O)cc4)CC3)nc21 [Compound 30]
28 | 30 nM | CC(C)n1cncc(-c2ccc(C3(NC(=O)c4nc5n(n4)[C@@H](c4ccccc4)CC5)CC3)cc2)c1=O [Compound 15]
29 | 29 nM | CC(C)n1ncc2cnc(C(=O)NC3(c4ccc(-c5cncn([C@@H](C)C(F)(F)F)c5=O)cc4F)CC3)nc21 (stereo in doubt) [Compound 47]
30 | 28 nM | CC(C)n1ncc2cnc(C(=O)NC3(c4ccc(-c5cncn(C)c5=O)cc4)CC3)nc21 [Compound 1, 1-isopropyl-N-(1-(4-(1-methyl-6-oxo-1,6-dihydropyrimidin-5-yl)phenyl)cyclopropyl)-1H-pyrazolo[3,4-d]pyrimidine-6-carboxamide]
31 | 26 nM | CC(C)n1cncc(-c2ccc(C3(NC(=O)c4ncc5cnn(C(C)C6CC6)c5n4)CC3)cc2)c1=O (racemic) [Compound 59, 1-(1-cyclopropylethyl)-N-(1-(4-(1-i-propyl-6-oxo-1,6-dihydropyrimidin-5-yl)phenyl)cyclopropyl)-1H-pyrazolo[3,4-d]pyrimidine-6-carboxamide]
32 | 26 nM | Cn1cncc(-c2ccc(C3(NC(=O)c4ncc5cnn(-c6ccccc6)c5n4)CC3)cc2)c1=O [Compound 4]
33 | 26 nM | Cn1cncc(-c2ccc(C3(NC(=O)c4ncc(Cc5ccccc5)o4)CC3)cc2)c1=O [Compound 10]
34 | 25 nM | CC(C)n1cncc(-c2ccc(C3(NC(=O)c4nc5n(n4)[C@H](c4ccccc4)CC5)CC3)cc2)c1=O [Compound 16]
35 | 22 nM | Cn1cncc(-c2ccc(C3(NC(=O)c4ncn(Cc5ccccc5)n4)CC3)cc2)c1=O [Compound 8]
36 | 22 nM | CC(C)n1cncc(-c2ccc(C3(NC(=O)c4nnc(Cc5ccccc5)o4)CC3)cc2)c1=O [Compound 13]
37 | 22 nM | CC(C)n1ncc2cnc(C(=O)NC3(c4ccc(-c5cncn(C)c5=O)cc4F)CC3)nc21 [Compound 26]
38 | 19 nM | CC(C)n1cncc(-c2ccc(C3(NC(=O)c4ncc5cnn(C(C)C)c5n4)CC3)cc2)c1=O [Compound 29, 1-isopropyl-N-(1-(4-(1-isopropyl-6-oxo-1,6-dihydropyrimidin-5-yl)phenyl)cyclopropyl)-1H-pyrazolo[3,4-d]pyrimidine-6-carboxamide]
39 | 15 nM | CC(C)n1cncc(-c2ccc(C3(NC(=O)c4ncn(Cc5ccccc5)n4)CC3)cc2)c1=O [Compound 17]
40 | 9 nM | CC(C)n1ncc2cnc(C(=O)NC3(c4ccc(-c5cncn(C6CC6)c5=O)cc4)CC3)nc21 [Compound 12]
